Laboratory results from PubChem BioAssay AID192 (DTP/NCI, 2004).
“And” between values parts separate entries of the source, which are not always exact repeats. Equal entries are not always repeated. Inconclusive results and toxic doses are left out.

System: BDF1 mice, B16 melanoma ip, median survival T/C
Assay: NCI In Vivo Anticancer Drug Screen. Data for tumor model B16 Melanoma (intraperitoneal) in B6D2F1 (BDF1) mice
Conditions: endpoint: median survival time, schedule: Q01DX009 (ip), higher = longer survival
Outline: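 The ratio T/C compares compound-treated mice with vehicle-treated controls, using survival or tumor size as the endpoint in a transplantable tumor model.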

[1] = dose: 6.25 mg/kg/injection, vehicle: saline
[2] = dose: 12.5 mg/kg/injection, vehicle: saline
[3] = dose: 75.0 mg/kg/injection, vehicle: Klucel (hydroxypropylcellulose) (HPC)
[4] = dose: 150.0 mg/kg/injection, vehicle: Klucel (hydroxypropylcellulose) (HPC)
[5] = dose: 100.0 mg/kg/injection, vehicle: saline with Tween-80
[6] = dose: 200.0 mg/kg/injection, vehicle: saline with Tween-80
[7] = dose: 400.0 mg/kg/injection, vehicle: saline with Tween-80
[8] = dose: 100.0 mg/kg/injection, vehicle: Klucel (hydroxypropylcellulose) (HPC)
[9] = dose: 200.0 mg/kg/injection, vehicle: Klucel (hydroxypropylcellulose) (HPC)
[10] = dose: 400.0 mg/kg/injection, vehicle: Klucel (hydroxypropylcellulose) (HPC)
[11] = dose: 25.0 mg/kg/injection, vehicle: saline with Tween-80
[12] = dose: 50.0 mg/kg/injection, vehicle: saline with Tween-80
[13] = dose: 12.5 mg/kg/injection, vehicle: saline with Tween-80
[14] = dose: 3.75 mg/kg/injection, vehicle: Klucel (hydroxypropylcellulose) (HPC)
[15] = dose: 7.5 mg/kg/injection, vehicle: Klucel (hydroxypropylcellulose) (HPC)
[16] = dose: 15.0 mg/kg/injection, vehicle: Klucel (hydroxypropylcellulose) (HPC)

## CC(=O)c1cccc(NC2C(N)C(NC(=O)N(C)C)(C(C)O)C(C)(O)C2(O)COC(=O)c2c(C)cccc2O)c1 (stereo unspecified)
dose: 0.3 mg/kg/injection, vehicle: saline with Tween-80
  T/C: 115 % of control
dose: 0.3 mg/kg/injection, vehicle: saline
  T/C: 113 % of control
dose: 0.5 mg/kg/injection, vehicle: Klucel (hydroxypropylcellulose) (HPC)
  T/C: 116 % of control
dose: 0.6 mg/kg/injection, vehicle: saline
  T/C: 113 % of control
dose: 1.0 mg/kg/injection, vehicle: Klucel (hydroxypropylcellulose) (HPC)
  T/C: 113 % of control
dose: 1.2 mg/kg/injection, vehicle: saline
  T/C: 122 % of control

## C=C1CCN(c2ccc(OCC)cc2)C1=O
dose: 4.0 mg/kg/injection, vehicle: saline + alcohol
  T/C: 93 % of control
dose: 8.0 mg/kg/injection, vehicle: saline + alcohol
  T/C: 95 % of control
dose: 16.0 mg/kg/injection, vehicle: saline + alcohol
  T/C: 107 % of control
dose: 32.0 mg/kg/injection, vehicle: saline + alcohol
  T/C: 115 % of control
dose: 64.0 mg/kg/injection, vehicle: saline + alcohol
  T/C: 93 % of control

## CC(CN(C)C)CN1c2ccccc2Sc2ccc(C(F)(F)F)cc21 (stereo unspecified)
dose: 0.78 mg/kg/injection, vehicle: saline
  T/C: 109 % of control
dose: 1.56 mg/kg/injection, vehicle: saline
  T/C: 105 % of control
dose: 3.12 mg/kg/injection, vehicle: saline
  T/C: 116 % of control
[1]
  T/C: 103 % of control
[2]
  T/C: 103 % of control

## NNC(=O)c1ccncc1
[2]
  T/C: 111 % of control
dose: 16.0 mg/kg/injection, vehicle: saline
  T/C: 98 % of control
dose: 25.0 mg/kg/injection, vehicle: saline
  T/C: 100 % of control
dose: 32.0 mg/kg/injection, vehicle: saline
  T/C: 98 % of control
dose: 50.0 mg/kg/injection, vehicle: saline
  T/C: 105 % of control
dose: 64.0 mg/kg/injection, vehicle: saline
  T/C: 100 % of control
dose: 100.0 mg/kg/injection, vehicle: saline
  T/C: 111 % of control
dose: 128.0 mg/kg/injection, vehicle: saline
  T/C: 90 % of control

## CCCCCCCCC(=O)CCCCC
[3]
  T/C: 104 % of control
[4]
  T/C: 103 % of control
dose: 300.0 mg/kg/injection, vehicle: Klucel (hydroxypropylcellulose) (HPC)
  T/C: 103 % of control

## Nc1nc(=O)n(C2OC(CO)C(O)C2O)cc1F (stereo unspecified)
[1]
  T/C: 116 % of control
dose: 9.0 mg/kg/injection, vehicle: saline
  T/C: 109 % of control
[2]
  T/C: 96 % of control
dose: 18.0 mg/kg/injection, vehicle: saline
  T/C: 116 % of control
dose: 24.0 mg/kg/injection, vehicle: saline
  T/C: 118 % of control
dose: 54.0 mg/kg/injection, vehicle: saline
  T/C: 103 % of control

## COc1cc(C(=O)N2CCN(c3ccccc3)CC2)c2ccccc2n1
[5]
  T/C: 119 % of control
[6]
  T/C: 119 % of control
[7]
  T/C: 124 % of control

## CCC(CC)(COS(=O)(=O)c1ccc(C)cc1)COS(=O)(=O)c1ccc(C)cc1
[8]
  T/C: 100 % of control
[9]
  T/C: 93 % of control
[10]
  T/C: 93 % of control

## CSCCC(C#N)(CCN(C)C)c1ccccc1 (stereo unspecified)
[11]
  T/C: 113 % of control
[12]
  T/C: 107 % of control
[5]
  T/C: 111 % of control

## C=CCOCC(O)CN(CCC)CCC (stereo unspecified)
[13]
  T/C: 114 % of control
[11]
  T/C: 112 % of control
[12]
  T/C: 114 % of control

## COc1cc2c(cc1OC)C1CNC(=O)C1C(c1ccccc1)C2 (stereo unspecified)
dose: 2.5 mg/kg/injection, vehicle: Klucel (hydroxypropylcellulose) (HPC)
  T/C: 91 % of control
[14]
  T/C: 91 % of control
dose: 5.0 mg/kg/injection, vehicle: Klucel (hydroxypropylcellulose) (HPC)
  T/C: 98 % of control
[15]
  T/C: 97 % of control
dose: 10.0 mg/kg/injection, vehicle: Klucel (hydroxypropylcellulose) (HPC)
  T/C: 94 % of control
[16]
  T/C: 92 % of control

## O=C(CBr)OCCOc1ccccc1
dose: 5.0 mg/kg/injection, vehicle: saline sonified
  T/C: 87 % of control
dose: 10.0 mg/kg/injection, vehicle: saline sonified
  T/C: 90 % of control
dose: 20.0 mg/kg/injection, vehicle: saline sonified
  T/C: 102 % of control
dose: 40.0 mg/kg/injection, vehicle: saline sonified
  T/C: 92 % of control

## O=C(NN=C1CCCCC1)c1ccccc1
dose: 18.75 mg/kg/injection, vehicle: saline with Tween-80
  T/C: 97 % of control
dose: 37.5 mg/kg/injection, vehicle: saline with Tween-80
  T/C: 100 % of control
dose: 75.0 mg/kg/injection, vehicle: saline with Tween-80
  T/C: 105 % of control and 107 % of control

## CC(=O)Oc1ccccc1O
dose: 25.0 mg/kg/injection, vehicle: saline + Tween-80 + alcohol
  T/C: 100 % of control
dose: 50.0 mg/kg/injection, vehicle: saline + Tween-80 + alcohol
  T/C: 109 % of control
dose: 100.0 mg/kg/injection, vehicle: saline + Tween-80 + alcohol
  T/C: 104 % of control

## O=C(O)COc1ccc(OCC(=O)O)cc1
dose: 0.75 mg/kg/injection, vehicle: Klucel (hydroxypropylcellulose) (HPC)
  T/C: 89 % of control
dose: 1.5 mg/kg/injection, vehicle: Klucel (hydroxypropylcellulose) (HPC)
  T/C: 89 % of control

## O=NN(CCCl)C(=O)NC1c2cc(Cl)ccc2-c2c(Cl)cc(Cl)cc21 (stereo unspecified)
[13]
  T/C: 169 % of control
[11]
  T/C: 195 % of control
[12]
  T/C: 181 % of control and 186 % of control
[5]
  T/C: 104 % of control and 231 % of control
[6]
  T/C: 175 % of control

## O=c1c(O)c(-c2ccccc2)oc2ccccc12
[5]
  T/C: 94 % of control
[6]
  T/C: 96 % of control
[7]
  T/C: 91 % of control
dose: 800.0 mg/kg/injection, vehicle: saline with Tween-80
  T/C: 93 % of control

## NC(Cc1ccc(O)cc1)C(=O)N/N=C/c1ccc(N(CCCl)CCCl)cc1 (stereo unspecified)
[16]
  T/C: 115 % of control
dose: 30.0 mg/kg/injection, vehicle: Klucel (hydroxypropylcellulose) (HPC)
  T/C: 120 % of control

## O=[N+]([O-])c1ccc(O)c(N=Cc2ccc(C=Nc3cc([N+](=O)[O-])ccc3O)cc2)c1
[3]
  T/C: 89 % of control
[4]
  T/C: 93 % of control

## Cc1c2ccccc2cc2cc[n+]3ccccc3c12
[14]
  T/C: 98 % of control
[15]
  T/C: 98 % of control
[16]
  T/C: 102 % of control

## CCCC1(C)COB(c2ccc(C)cc2)OC1
dose: 25.0 mg/kg/injection, vehicle: Klucel (hydroxypropylcellulose) (HPC)
  T/C: 93 % of control
dose: 50.0 mg/kg/injection, vehicle: Klucel (hydroxypropylcellulose) (HPC)
  T/C: 90 % of control
[8]
  T/C: 97 % of control
[9]
  T/C: 86 % of control
[10]
  T/C: 90 % of control

## CC[n+]1c(C)ccc2ccccc21
dose: 25.0 mg/kg/injection, vehicle: carboxymethylcellulose (CMC)
  T/C: 112 % of control
dose: 50.0 mg/kg/injection, vehicle: carboxymethylcellulose (CMC)
  T/C: 96 % of control

## CN(CC(=O)NC(Cc1c[nH]c2ccccc12)C(=O)O)C(=O)OCc1ccccc1 (stereo unspecified)
[12]
  T/C: 113 % of control
[5]
  T/C: 106 % of control
[6]
  T/C: 104 % of control
[7]
  T/C: 100 % of control

## CCOC(=O)C(CC)c1ccccc1 (stereo unspecified)
[12]
  T/C: 91 % of control
[5]
  T/C: 95 % of control

## CSCCC(NC(=O)CN(C)C(=O)OCc1ccccc1)C(=O)O (stereo unspecified)
[12]
  T/C: 100 % of control
[5]
  T/C: 100 % of control

## CC(C)(C)OC(=O)NC(CCCCNC(=O)OCc1ccccc1)C(=O)O (stereo unspecified)
[12]
  T/C: 107 % of control
[5]
  T/C: 90 % of control
